The supplement of paper PMC10307832

Legend:
Experiment in all cases: relative viability (nuclei count vs DMSO), 5 days (fraction); higher = more cells survive
[1] = tested on: HCC-78
Procedure, shortened: (§1)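 Values are medians from duplicate plates. Each reflects relative viability, defined as the nuclei count of treated wells over that of vehicle wells. Lung cancer cell lines in 1536-well plates were pin-tool dosed one day after seeding with one drug alone or with a fixed anchor-drug dose plus five library-drug doses (not always all listed) in √10 steps, then fixed, stained and imaged at 4× after 5 days.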

[2] = tested on: RERF-LC-KJ
Procedure, shortened: as §1

[3] = tested on: NCI-H23
Procedure, shortened: as §1

[4] = tested on: 201T
Procedure, shortened: as §1

[5] = tested on: NCI-H1666
Procedure, shortened: as §1

[6] = tested on: NCI-H1915
Procedure, shortened: as §1

[7] = tested on: NCI-H2347
Procedure, shortened: as §1

[8] = tested on: NCI-H661
Procedure, shortened: as §1

[9] = tested on: LC-2-ad
Procedure, shortened: as §1

[10] = tested on: NCI-H650
Procedure, shortened: as §1

[11] = tested on: EPLC-272H
Procedure, shortened: as §1

[12] = tested on: NCI-H322M
Procedure, shortened: as §1

[13] = tested on: NCI-H520
Procedure, shortened: as §1

[14] = tested on: HCC-827
Procedure, shortened: as §1

[15] = tested on: NCI-H2087
Procedure, shortened: as §1

[16] = tested on: LCLC-97TM1
Procedure, shortened: as §1

[17] = tested on: NCI-H647
Procedure, shortened: as §1

[18] = tested on: COR-L 105
Procedure, shortened: as §1

[19] = tested on: NCI-H2126
Procedure, shortened: as §1

[20] = tested on: PC-14
Procedure, shortened: as §1

[21] = tested on: NCI-H2405
Procedure, shortened: as §1

[22] = tested on: H3255
Procedure, shortened: as §1

C=C1C(=O)O[C@@H](CCCCCCCC)[C@@H]1C(=O)O [C-75] + CS(=O)(=O)CCNCc1ccc(-c2ccc3ncnc(Nc4ccc(OCc5cccc(F)c5)c(Cl)c4)c3c2)o1 [Lapatinib] (partner 2 µM)
relative viability ([1]; first compound 0.08 µM): 1.05 | relative viability ([1]; first compound 0.253 µM): 0.6 | relative viability ([1]; first compound 0.8 µM): 0.464 | relative viability ([1]; first compound 2.53 µM): 0.348 | relative viability ([1]; first compound 8 µM): 0.756 | relative viability ([2]; first compound 0.08 µM): 0.826 | relative viability ([2]; first compound 0.253 µM): 0.866 | relative viability ([2]; first compound 0.8 µM): 0.863 | relative viability ([2]; first compound 2.53 µM): 0.872 | relative viability ([2]; first compound 8 µM): 0.966 | relative viability ([3]; first compound 0.08 µM): 1.16 | relative viability ([3]; first compound 0.253 µM): 1.34 | relative viability ([3]; first compound 0.8 µM): 0.83 | relative viability ([3]; first compound 2.53 µM): 0.851 | relative viability ([3]; first compound 8 µM): 0.546 | relative viability ([4]; first compound 0.08 µM): 1 | relative viability ([4]; first compound 0.253 µM): 1.2 | relative viability ([4]; first compound 0.8 µM): 0.959 | relative viability ([4]; first compound 2.53 µM): 0.886 | relative viability ([4]; first compound 8 µM): 1.05 | relative viability ([5]; first compound 0.08 µM): 0.668 | relative viability ([5]; first compound 0.253 µM): 0.872 | relative viability ([5]; first compound 0.8 µM): 0.54 | relative viability ([5]; first compound 2.53 µM): 0.549 | relative viability ([5]; first compound 8 µM): 0.471 | relative viability ([6]; first compound 0.08 µM): 0.952 | relative viability ([6]; first compound 0.253 µM): 0.945 | relative viability ([6]; first compound 0.8 µM): 0.89 | relative viability ([6]; first compound 2.53 µM): 0.917 | relative viability ([6]; first compound 8 µM): 0.909 | relative viability ([7]; first compound 0.08 µM): 0.862 | relative viability ([7]; first compound 0.253 µM): 0.94 | relative viability ([7]; first compound 0.8 µM): 0.965 | relative viability ([7]; first compound 2.53 µM): 0.828 | relative viability ([7]; first compound 8 µM): 1.02 | relative viability ([8]; first compound 0.08 µM): 0.51 | relative viability ([8]; first compound 0.253 µM): 0.554 | relative viability ([8]; first compound 0.8 µM): 0.43 | relative viability ([8]; first compound 2.53 µM): 0.396 | relative viability ([8]; first compound 8 µM): 0.407 | relative viability ([9]; first compound 0.08 µM): 0.982 | relative viability ([9]; first compound 0.253 µM): 0.919 | relative viability ([9]; first compound 0.8 µM): 0.898 | relative viability ([9]; first compound 8 µM): 1.01 | relative viability ([10]; first compound 0.08 µM): 1.02 | relative viability ([10]; first compound 0.253 µM): 0.86 | relative viability ([10]; first compound 0.8 µM): 0.803 | relative viability ([10]; first compound 2.53 µM): 0.855 | relative viability ([10]; first compound 8 µM): 0.826 | relative viability ([11]; first compound 0.08 µM): 0.974 | relative viability ([11]; first compound 0.253 µM): 0.805 | relative viability ([11]; first compound 0.8 µM): 1.01 | relative viability ([11]; first compound 2.53 µM): 0.592 | relative viability ([11]; first compound 8 µM): 0.789 | relative viability ([12]; first compound 0.08 µM): 0.597 | relative viability ([12]; first compound 0.253 µM): 0.744 | relative viability ([12]; first compound 0.8 µM): 0.59 | relative viability ([12]; first compound 2.53 µM): 0.568 | relative viability ([12]; first compound 8 µM): 0.629 | relative viability ([13]; first compound 0.08 µM): 0.835 | relative viability ([13]; first compound 0.253 µM): 0.964 | relative viability ([13]; first compound 0.8 µM): 0.703 | relative viability ([13]; first compound 2.53 µM): 0.734 | relative viability ([13]; first compound 8 µM): 0.598 | relative viability ([14]; first compound 0.08 µM): 0.23 | relative viability ([14]; first compound 0.253 µM): 0.235 | relative viability ([14]; first compound 0.8 µM): 0.212 | relative viability ([14]; first compound 2.53 µM): 0.191 | relative viability ([14]; first compound 8 µM): 0.205 | relative viability ([15]; first compound 0.08 µM): 1.07 | relative viability ([15]; first compound 0.253 µM): 0.975 | relative viability ([15]; first compound 0.8 µM): 1.1 | relative viability ([15]; first compound 2.53 µM): 0.868 | relative viability ([15]; first compound 8 µM): 0.776 | relative viability ([16]; first compound 0.08 µM): 0.684 | relative viability ([16]; first compound 0.253 µM): 1.67 | relative viability ([16]; first compound 0.8 µM): 0.881 | relative viability ([16]; first compound 2.53 µM): 0.555 | relative viability ([16]; first compound 8 µM): 0.543 | relative viability ([17]; first compound 0.08 µM): 0.896 | relative viability ([17]; first compound 0.253 µM): 1.38 | relative viability ([17]; first compound 2.53 µM): 0.791 | relative viability ([17]; first compound 8 µM): 0.584 | relative viability ([18]; first compound 0.08 µM): 0.299 | relative viability ([18]; first compound 0.253 µM): 0.315 | relative viability ([18]; first compound 0.8 µM): 0.374 | relative viability ([18]; first compound 2.53 µM): 0.309 | relative viability ([18]; first compound 8 µM): 0.414 | relative viability ([19]; first compound 0.08 µM): 0.774 | relative viability ([19]; first compound 0.253 µM): 0.914 | relative viability ([19]; first compound 0.8 µM): 0.728 | relative viability ([19]; first compound 2.53 µM): 0.62 | relative viability ([19]; first compound 8 µM): 0.758 | relative viability ([20]; first compound 0.08 µM): 0.316 | relative viability ([20]; first compound 0.253 µM): 0.259 | relative viability ([20]; first compound 0.8 µM): 0.328 | relative viability ([20]; first compound 2.53 µM): 0.243 | relative viability ([20]; first compound 8 µM): 0.343 | relative viability ([21]; first compound 0.08 µM): 1.07 | relative viability ([21]; first compound 0.253 µM): 0.772 | relative viability ([21]; first compound 0.8 µM): 1 | relative viability ([21]; first compound 2.53 µM): 1.07 | relative viability ([21]; first compound 8 µM): 1.06 | relative viability ([22]; first compound 0.08 µM): 0.277 | relative viability ([22]; first compound 0.253 µM): 0.314 | relative viability ([22]; first compound 0.8 µM): 0.254 | relative viability ([22]; first compound 2.53 µM): 0.21 | relative viability ([22]; first compound 8 µM): 0.274
